Data: the supplement of paper PMC4862054

Columns and labels:
Hs578T [1] = experiment: normalised viability (% of control), CellTiter-Blue; higher = more viable cells (100 = DMSO, 0 = benzethonium chloride kill control); details: 1 nM; incubation time: 72 h
Method: (§1)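 DSRT, CellTiter-Blue viability, 72 h incubation. Signal is normalised to DMSO and benzethonium chloride controls. Value is the normalised response at dose 1.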

CAL-148 [2] = experiment: as above; details: 1 nM; incubation time: 72 h
Method: as §1

BT-549 [3] = experiment: as above; details: 1 nM; incubation time: 72 h
Method: as §1

CAL-85-1 [4] = experiment: as above; details: 1 nM; incubation time: 72 h
Method: as §1

SK-BR-3 [5] = experiment: as above; details: 1 nM; incubation time: 72 h
Method: as §1

DU-4475 = experiment: as above; details: 1 nM; incubation time: 72 h
Method: as §1

HCC1143 = experiment: as above; details: 1 nM; incubation time: 72 h
Method: as §1

MDA-MB-468 [6] = experiment: as above; details: 1 nM; incubation time: 72 h
Method: as §1

CAL-120 [7] = experiment: as above; details: 1 nM; incubation time: 72 h
Method: as §1

MFM-223 = experiment: as above; details: 1 nM; incubation time: 72 h
Method: as §1

MDA-MB-453 = experiment: as above; details: 1 nM; incubation time: 72 h
Method: as §1

MDA-MB-231 [8] = experiment: as above; details: 1 nM; incubation time: 72 h
Method: as §1

HCC1937 [9] = experiment: as above; details: 1 nM; incubation time: 72 h
Method: as §1

MDA-MB-436 = experiment: as above; details: 1 nM; incubation time: 72 h
Method: as §1

HCC1599 = experiment: as above; details: 1 nM; incubation time: 72 h
Method: as §1

HDQ-P1 = experiment: as above; details: 1 nM; incubation time: 72 h
Method: as §1

Hs578T [10] = experiment: drug sensitivity score (DSS), CellTiter-Glo (DSS (AUC-based score)); higher = stronger drug effect (viability inhibition or cytotoxicity); extreme values may be limits of the assay; details: incubation time: 72 h
Outline: (§2)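 Plates with 384 wells held compound at 5 concentrations in 10-fold steps over a 10,000-fold range specific to each compound. Breast cancer cell lines were added in 20 µl suspension and incubated 72 h, then read for CellTox Green and CellTiter-Glo signals, with each plate normalised to 0.1 % DMSO and a positive kill control. The drug sensitivity score is based on the area under the fitted dose-response curve.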

CAL-148 [11] = experiment: as above; details: incubation time: 72 h
Outline: as §2

BT-549 [12] = experiment: as above; details: incubation time: 72 h
Outline: as §2

CAL-85-1 [13] = experiment: as above; details: incubation time: 72 h
Outline: as §2

SK-BR-3 [14] = experiment: as above; details: incubation time: 72 h
Outline: as §2

BT-474 = experiment: as above; details: incubation time: 72 h
Outline: as §2

CAL-51 = experiment: as above; details: incubation time: 72 h
Outline: as §2

MDA-MB-468 [15] = experiment: as above; details: incubation time: 72 h
Outline: as §2

CAL-120 [16] = experiment: as above; details: incubation time: 72 h
Outline: as §2

MDA-MB-231 [17] = experiment: as above; details: incubation time: 72 h
Outline: as §2

HCC1937 [18] = experiment: as above; details: incubation time: 72 h
Outline: as §2

SMILES | normalised viability (Hs578T [1]) [%] | normalised viability (CAL-148 [2]) [%] | normalised viability (BT-549 [3]) [%] | normalised viability (CAL-85-1 [4]) [%] | normalised viability (SK-BR-3 [5]) [%] | normalised viability (DU-4475) [%] | normalised viability (HCC1143) [%] | normalised viability (MDA-MB-468 [6]) [%] | normalised viability (CAL-120 [7]) [%] | normalised viability (MFM-223) [%] | normalised viability (MDA-MB-453) [%] | normalised viability (MDA-MB-231 [8]) [%] | normalised viability (HCC1937 [9]) [%] | normalised viability (MDA-MB-436) [%] | normalised viability (HCC1599) [%] | normalised viability (HDQ-P1) [%] | drug sensitivity score (Hs578T [10]) | drug sensitivity score (CAL-148 [11]) | drug sensitivity score (BT-549 [12]) | drug sensitivity score (CAL-85-1 [13]) | drug sensitivity score (SK-BR-3 [14]) | drug sensitivity score (BT-474) | drug sensitivity score (CAL-51) | drug sensitivity score (MDA-MB-468 [15]) | drug sensitivity score (CAL-120 [16]) | drug sensitivity score (MDA-MB-231 [17]) | drug sensitivity score (HCC1937 [18])
C=CC(=O)Nc1cc2c(Nc3ccc(F)c(Cl)c3)ncnc2cc1OCCCN1CCOCC1 [Canertinib] | 103 | 99.5 | 110 | 80 | 86.2 | 98.5 | 90.2 | 110 | 84.4 | 92.8 | 103 | 98.5 | 90.6 | 97.5 | 94.8 | 88.3 | 2.99 | 5.7 | 7.57 | 13.6 | 20.8 | 6.57 | 14.1 | 10.6 | 3.29 | 8.75 | 5.34
COc1cc([C@@H]2c3cc4c(cc3[C@@H](O[C@@H]3O[C@@H]5CO[C@@H](c6cccs6)O[C@H]5[C@H](O)[C@H]3O)[C@H]3COC(=O)[C@H]23)OCO4)cc(OC)c1O [Teniposide] | 127 | 103 | 85 | 105 | 97.2 | 94.6 | 98.1 | 98.9 | 98.2 | 92.1 | 113 | 132 | 94 | 110 | 98.3 | 104 | 7.63 | 15.7 | 16.1 | 10.3 | 20.3 | 11.7 | 12.1 | 13.5 | 6.56 | 8.09 | 6.71
Cc1ccc(-c2cc(C(F)(F)F)nn2-c2ccc(S(N)(=O)=O)cc2)cc1 [Celecoxib] | 111 | 95.4 | 90.7 | 86.8 | 75.2 | 89 | 90.7 | 102 | 78.3 | 98.5 | 97.3 | 117 | 96.7 | 104 | 79 | 114 | 0 | 0 | 0 | 0 | 0 | 0 | 0 | 0 | 0 | 0 | 0
